Measured values from US20170190671A1, “BIS(ARYL)CATECHOL DERIVATIVES AS HERBICIDES” (E I DU PONT DE NEMOURS AND COMPANY, priority 2014, published 2017).

Key:
Assay type in all cases: in vivo
[1] = tested on: Italian ryegrass (Lolium multiflorum); experiment: Test A preemergence; conditions: Lolium multiflorum, pre-emergence, 240 h
How it was run: (§1)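 Compounds in non-phytotoxic solvent with surfactant applied as soil spray preemergence, or postemergence to plants 2-10 cm at one- to two-leaf stage, in loam/sand. After approximately 10 days in greenhouse, injury rated visually versus untreated controls, 0 (no effect) to 100 (complete control).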

[2] = tested on: giant foxtail (Setaria faberii); experiment: Test A preemergence; conditions: Setaria faberi, pre-emergence, 240 h
How it was run: as §1

[3] = tested on: barnyardgrass (Echinochloa crus-galli); experiment: Test A preemergence; conditions: Echinochloa crus-galli, pre-emergence, 240 h
How it was run: as §1

[4] = tested on: ragweed (common ragweed, Ambrosia elatior); experiment: Test A preemergence; conditions: Ambrosia artemisiifolia, pre-emergence, 240 h
How it was run: as §1

[5] = tested on: pigweed (Amaranthus retroflexus); experiment: Test A preemergence; conditions: Amaranthus retroflexus, pre-emergence, 240 h
How it was run: as §1

kochia (Kochia scoparia) [6] = experiment: Test A preemergence; conditions: Bassia scoparia, pre-emergence, 240 h
How it was run: as §1

[7] = tested on: Italian ryegrass (Lolium multiflorum); experiment: Test C preemergence; conditions: Lolium multiflorum, pre-emergence, 336 h, scale 0 to 100, read-out: Plant response rating, Ryegrass, Italian
How it was run: (§2)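 Greenhouse test; preemergence on seeded loam-sand soil or spray on 1- to 4-leaf plants; solvent + surfactant vehicle; 13-15 day hold; visual comparison with controls; 0 (no effect)-100 (complete control).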

[8] = tested on: waterhemp (common waterhemp, Amaranthus rudis); experiment: Test C preemergence; conditions: Amaranthus tuberculatus, pre-emergence, scale 0 to 100, read-out: Plant response rating, Waterhemp
How it was run: as §2

[9] = tested on: barnyardgrass (Echinochloa crus-galli); experiment: Test B flooded paddy; conditions: Echinochloa crus-galli, 336 h; 250 g ai/ha, Flood, 13 to 15 days, scale 0 (no effect) to 100 (complete control); read-out: Plant response rating, Barnyardgrass
How it was run: (§3)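 Ratings were visual and made relative to untreated controls after 13 to 15 greenhouse days.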

rice (Oryza sativa) = experiment: Test B flooded paddy; conditions: Oryza sativa, 336 h; 250 g ai/ha, Flood, 13 to 15 days, scale 0 (no effect) to 100 (complete control); read-out: Plant response rating, Rice
How it was run: as §3

[10] = tested on: sedge, umbrella (small-flower umbrella sedge, Cyperus difformis); experiment: Test B flooded paddy; conditions: Cyperus difformis, 336 h; 250 g ai/ha, Flood, 13 to 15 days, scale 0 (no effect) to 100 (complete control); read-out: Plant response rating, Sedge, Umbrella
How it was run: as §3

[11] = tested on: ducksalad (Heteranthera limosa); experiment: Test B flooded paddy; conditions: Heteranthera limosa, 336 h; 250 g ai/ha, Flood, 13 to 15 days, scale 0 (no effect) to 100 (complete control); read-out: Plant response rating, Ducksalad
How it was run: as §3

[12] = tested on: Italian ryegrass (Lolium multiflorum); experiment: Test A postemergence; conditions: Lolium multiflorum, post-emergence, 240 h, 0 to 100 scale, read-out: Plant response rating, Ryegrass, Italian
How it was run: as §1

[13] = tested on: blackgrass (Alopecurus myosuroides); experiment: Test A postemergence; conditions: Alopecurus myosuroides, post-emergence, 240 h, 0 to 100 scale, read-out: Plant response rating, Blackgrass
How it was run: as §1

corn (Zea mays) = experiment: Test A postemergence; conditions: Zea mays, post-emergence, 240 h, 0 to 100 scale
How it was run: as §1

[14] = tested on: wheat (Triticum aestivum); experiment: Test A postemergence; conditions: Triticum aestivum, post-emergence, 240 h, 0 to 100 scale, read-out: Plant response rating, Wheat
How it was run: as §1

[15] = tested on: giant foxtail (Setaria faberii); experiment: Test A postemergence; conditions: Setaria faberi, post-emergence, 240 h, 0 to 100 scale, read-out: Plant response rating, Foxtail, Giant
How it was run: as §1

[16] = tested on: barnyardgrass (Echinochloa crus-galli); experiment: Test A postemergence; conditions: Echinochloa crus-galli, post-emergence, 240 h, 0 to 100 scale, read-out: Plant response rating, Barnyardgrass
How it was run: as §1

[17] = tested on: ragweed (common ragweed, Ambrosia elatior); experiment: Test A postemergence; conditions: Ambrosia artemisiifolia, post-emergence, 240 h, 0 to 100 scale, read-out: Plant response rating, Ragweed
How it was run: as §1

[18] = tested on: galium (catchweed bedstraw, Galium aparine); experiment: Test A postemergence; conditions: Galium, post-emergence, 240 h, 0 to 100 scale, read-out: Plant response rating, Galium
How it was run: as §1

[19] = tested on: pigweed (Amaranthus retroflexus); experiment: Test A postemergence; conditions: Amaranthus retroflexus, post-emergence, 240 h, 0 to 100 scale, read-out: Plant response rating, Pigweed
How it was run: as §1

kochia (Kochia scoparia) [20] = experiment: Test A postemergence; conditions: Bassia scoparia, post-emergence, 240 h, 0 to 100 scale, read-out: Plant response rating, Kochia
How it was run: as §1

Fc1cccc(Oc2ncc(C(F)(F)F)cn2)c1Oc1ncc(Cl)cn1 [Compound 42, 5-chloro-2-[2-fluoro-6-[[5-(trifluoromethyl)-2-pyrimidinyl]oxy]phenoxy]pyrimidine]
pest or weed control at 125 g/ha ([1]; 125 g ai/ha, 0 to 100 scale (0 no effect, 100 complete control), read-out: Ryegrass, Italian plant response rating): 60% | pest or weed control at 500 g/ha ([1]; 500 g ai/ha, 0 to 100 scale, read-out: Plant response rating, Ryegrass, Italian): 100% | pest or weed control at 125 g/ha ([2]; 125 g ai/ha, 0 to 100 scale (0 no effect, 100 complete control), read-out: Foxtail, Giant plant response rating): 100% | pest or weed control at 500 g/ha ([2]; 500 g ai/ha, 0 to 100 scale, read-out: Plant response rating, Foxtail, Giant): 100% | pest or weed control at 125 g/ha ([3]; 125 g ai/ha, 0 to 100 scale (0 no effect, 100 complete control), read-out: Barnyardgrass plant response rating): 100% | pest or weed control at 500 g/ha ([3]; 500 g ai/ha, 0 to 100 scale, read-out: Plant response rating, Barnyardgrass): 100% | pest or weed control at 125 g/ha ([4]; 125 g ai/ha, 0 to 100 scale (0 no effect, 100 complete control), read-out: Ragweed plant response rating): 100% | pest or weed control at 500 g/ha ([4]; 500 g ai/ha, 0 to 100 scale, read-out: Plant response rating, Ragweed): 100% | pest or weed control at 125 g/ha ([5]; 125 g ai/ha, 0 to 100 scale (0 no effect, 100 complete control), read-out: Pigweed plant response rating): 100% | pest or weed control at 500 g/ha ([5]; 500 g ai/ha, 0 to 100 scale, read-out: Plant response rating, Pigweed): 100% | pest or weed control at 125 g/ha (kochia (Kochia scoparia) [6]; 125 g ai/ha, 0 to 100 scale (0 no effect, 100 complete control), read-out: Kochia plant response rating): 100% | pest or weed control at 500 g/ha (kochia (Kochia scoparia) [6]; 500 g ai/ha, 0 to 100 scale, read-out: Plant response rating, Kochia): 100% | pest or weed control at 31 g/ha ([7]; 31 g ai/ha, preemergence): 70% | pest or weed control at 62 g/ha ([7]; 62 g ai/ha, preemergence): 80% | pest or weed control at 125 g/ha ([7]; 125 g ai/ha, preemergence): 95% | pest or weed control at 16 g/ha ([7]; Preemergence, 16 g ai/ha): 5% | pest or weed control at 31 g/ha ([8]; 31 g ai/ha, preemergence): 100% | pest or weed control at 62 g/ha ([8]; 62 g ai/ha, preemergence): 100% | pest or weed control at 125 g/ha ([8]; 125 g ai/ha, preemergence): 100% | pest or weed control at 16 g/ha ([8]; Preemergence, 16 g ai/ha): 95% | pest or weed control at 250 g/ha [9]: 100% | plant injury at 250 g/ha (rice (Oryza sativa)): 80% | pest or weed control at 250 g/ha [10]: 100% | pest or weed control at 250 g/ha [11]: 100% | pest or weed control at 125 g/ha ([12]; 125 g ai/ha): 100% | pest or weed control at 500 g/ha ([12]; 500 g ai/ha): 100% | pest or weed control at 125 g/ha ([13]; 125 g ai/ha): 90% | pest or weed control at 500 g/ha ([13]; 500 g ai/ha): 100% | Corn plant response rating (crop injury, 0 = no effect, 100 = complete kill) at 125 g/ha (corn (Zea mays); 125 g ai/ha): 80% | Corn plant response rating (crop injury, 0 = no effect, 100 = complete kill) at 500 g/ha (corn (Zea mays); 500 g ai/ha): 100% | plant injury at 125 g/ha ([14]; 125 g ai/ha): 80% | plant injury at 500 g/ha ([14]; 500 g ai/ha): 100% | pest or weed control at 125 g/ha ([15]; 125 g ai/ha): 100% | pest or weed control at 500 g/ha ([15]; 500 g ai/ha): 100% | pest or weed control at 125 g/ha ([16]; 125 g ai/ha): 100% | pest or weed control at 500 g/ha ([16]; 500 g ai/ha): 100% | pest or weed control at 125 g/ha ([17]; 125 g ai/ha): 70% | pest or weed control at 500 g/ha ([17]; 500 g ai/ha): 100% | pest or weed control at 125 g/ha ([18]; 125 g ai/ha): 100% | pest or weed control at 500 g/ha ([18]; 500 g ai/ha): 100% | pest or weed control at 125 g/ha ([19]; 125 g ai/ha): 100% | pest or weed control at 500 g/ha ([19]; 500 g ai/ha): 100% | pest or weed control at 125 g/ha (kochia (Kochia scoparia) [20]; 125 g ai/ha): 100% | pest or weed control at 500 g/ha (kochia (Kochia scoparia) [20]; 500 g ai/ha): 100%
